Measured values: patent US20050054629A1, “Compounds and methods of treating cell proliferative diseases” (priority 2002, published 2005)
pIC50: −log10 of the molar value.

What was measured:
HCT116 = assay: Cell viability assay (MTT), Example 32; assay type: cell-based, human; details: Homo sapiens, HCT-116, 144 h; day 6, 10% FBS
Protocol: FIG. 7: Antiproliferative effect of compounds on HCT116 (top) and MDA-MB-231 (bottom) cell lines measured by MTT viability assay. 2.5 10^3 (HCT116) or 7.5 10^3 (MDA-MB-231) cells were seeded in 48-well plates in growth medium containing 10% FBS, with or without various concentrations of test compounds. Cell cultures were fed every 3 days with the appropriate media. Cell viability was determined on day 6. Data were analyzed and IC50s were calculated from the dose-response curves using GraphPad Prism.
In order to determine one compound effect on cell viability, microculture tetrazolium assay (MTT) was performed as described by Carmichael et al., (1996) with modifications. Four human tumoral cell lines, namely HCT116 colon adenocarcinoma, H460 lung carcinoma, MCF-7 and MDA-MB-231 breast carcinoma cell lines, and 3 immortalized but non tumorigenic cell lines, namely NIH3T3 mouse fibroblasts and human breast-derived MCF10-A and human lung-derived MRC-5 were purchased at ATCC and cultured according to their recommendations. Briefly, 2.5 10^3 to 2 10^4 cells per well were seeded in 48-well plates 24 hours before drug addition. Cells were treated with 0 to 200 μM (11 concentrations) of compound solubilized in DMSO, adjusting the final concentration of DMSO to 1% in the well. Six days after treatment, the medium was replaced by PBS containing 0.5 mg/ml MTT (Sigma) and cells were incubated for 1-3 hours at 37° C. before solubilization of formazan crystals in 100% DMSO. Absorbance was measured using a spectrophotometer at a wavelength of 550 nm. Data was analyzed using the GraphPad Prism software (GraphPad Software, Inc., San Diego, USA), and IC50 (dose leading to 50% cell death) was calculated from the dose-response curves.

HCT116 cells = assay: Anchorage-independent cell growth assay in soft agar, Example 32; assay type: cell-based, human; details: 7 days
Protocol: FIG. 8: Effect of the treatment of HCT116 cells with the compounds on the size of the clones grown in soft agar. 5 10^3 cells were seeded in 24-well plates in 0.3% agar-containing medium supplemented with the designated amount of compounds. After 7 days of incubation at 37° C., pictures were taken of each well and were analyzed using the ImageJ image analysis software. In particular, clone size and number were calculated. The data were analyzed using GraphPad Prism, and IC50 was calculated.
In order to evaluate the effect of one compound on the capacity of tumour cells to grow without anchorage, HCT116 cells were seeded in soft agar. In contrast to microplate assays which average the drug's effects over an entire cell population, clonogenic assays offer the possibility of distinguishing cytotoxic agents (i.e., decreased colony number) from cytostatic agents (i.e., decreased colony size without decreased colony number; Murphy M. J. et al., 1996).
Briefly, 5 10^3 HCT116 cells were resuspended in 300 pi of complete medium containing 0.3% soft-agar (Difco) and different concentrations of compound (8 concentrations ranging from 0 to 30 μM). Cells were then poured on a solidified layer of medium containing 0.5% of soft agar plus the compound at the same concentration as in the upper layer. Cells were incubated for 7 days' at 37° C. before pictures of each well were taken using a phase contrast microscope (Nikon) and a digital camera (Nikon Coolpix 990). Pictures were subsequently analyzed using a free image analysis software from the NIH (ImageJ) allowing to determine clones size and number.
Data was analyzed using the GraphPad Prism software, and IC50 (dose leading to a 50% decrease of clone size or number) was calculated from dose-response curves. The ratio IC50 clone size/IC50 clone number was then calculated. When this ratio is equal to 1 (IC50 size=IC50 number), the compound is referred to as “cytotoxic”. When the ratio is close to 0 (IC50 size<<IC50 number), the compound is referred to as “cytostatic” (FIG. 6).

SMILES	pIC50 (HCT116)	IC50 anchorage-independent growth of HCT116 (clone size) in soft agar (HCT116 cells)
O=c1cc(COC2CCCCO2)occ1OCCCCCn1ccc2ccccc21 (stereo not drawn) [EHT 7395, 5-(5-Indol-1-yl-pentyloxy)-2-(tetrahydro-pyran-2-yloxymethyl)-4H-pyran-4-one]	5.40 to 5.82	micromolar range
O=c1cc(COC2CCCCO2)occ1OCCCCCn1ccc2cc(F)ccc21 (stereo not drawn) [EHT 0533, 5-[5-(5-Fluoro-indol-1-yl)-pentyloxy]-2-(tetrahydro-pyran-2-yloxymethyl)-4H-pyran-4-one]	5.40 to 5.82	micromolar range
Cc1cc2ccccc2n1CCCCCOc1coc(COC2CCCCO2)cc1=O (stereo not drawn) [EHT 2427, 5-[5-(2-Methyl-indol-1-yl)-pentyloxy]-2-(tetrahydro-pyran-2-yloxymethyl)-4H-pyran-4-one]	5.40 to 5.82	micromolar range
